Measurements reported in patent publication US20060030585A1, “Tricyclic delta-opioid modulators” (priority 2004, published 2006).
Where two headings read alike, the source gives them in different places.

Columns and labels:
mu opioid receptor = mu opioid receptor (Rattus norvegicus, UniProt P33535); assay: Rat brain mu opioid receptor binding assay ([3H]DAMGO); settings: Rat mu opioid receptor binding constant, rat forebrain membranes, ~0.8 nM [3H]DAMGO
[1] = target: T1, delta opioid receptor (NG108-15 cell membranes) (Mus musculus, UniProt P32300); assay: [35S]GTPγS binding assay in NG108-15 cell membranes (delta opioid); type: biochemical; settings: agonist-stimulated [35S]GTPγS binding
T1 construct: NG108-15 cell membranes were purchased from Applied Cell Sciences (Rockville, Md.); host or cells: NG108-15 cell membranes (purchased)
T1 sequence (P32300 whole entry): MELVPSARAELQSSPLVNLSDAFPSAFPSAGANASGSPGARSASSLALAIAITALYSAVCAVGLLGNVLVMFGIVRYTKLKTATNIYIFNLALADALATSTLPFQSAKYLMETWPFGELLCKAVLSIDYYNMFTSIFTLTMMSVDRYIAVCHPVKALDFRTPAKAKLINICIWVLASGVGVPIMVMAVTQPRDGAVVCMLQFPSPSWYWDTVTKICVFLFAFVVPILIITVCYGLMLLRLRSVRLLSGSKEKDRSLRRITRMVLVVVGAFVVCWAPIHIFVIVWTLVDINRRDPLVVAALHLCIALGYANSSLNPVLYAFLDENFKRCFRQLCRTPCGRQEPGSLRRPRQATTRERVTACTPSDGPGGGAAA
Description: [^35S]GTPγS Binding Assay in NG108-15 Cell Membranes (delta opioid)
Methods: NG108-15 cell membranes were purchased from Applied Cell Sciences (Rockville, Md.). 8 mg/mL of membrane protein suspended in 10 mM TRIS-HCl pH 7.2, 2 mM EDTA, 10% sucrose. Membranes were maintained at 4-8° C. A 1 mL volume of membranes was added into 10 mL cold binding assay buffer. The assay buffer contained 50 mM Tris, pH 7.6, 5 mM MgCl2, 100 mM NaCl, 1 mM DTT and 1 mM EGTA. The membrane suspension was homogenized twice with a Polytron, and centrifuged at 3000 rpm for 10 min. The supernatant was then centrifuged at 18,000 rpm for 20 min. Ten mL assay buffer was added into the pellet containing tube. The pellet and buffer were mixed with a Polytron.
Incubation procedure: The pellet membranes (75 μg/mL) were preincubated with SPA (10 mg/mL) at 25° C. for 45 min in the assay buffer. […] GTPγS in the same Tris buffer containing 100 μM GDP in total volume of 200 μL. Increasing concentrations of receptor agonists were used to stimulate [35S]-GTPγS binding. The basal binding was tested in the absence of agonists and non-specific binding was tested in the presence of 10 μM unlabeled GTPγS. The data were analyzed on a Packard Top Count.
% of Basal=(stimulated−non specific)*100/(basal−non specific). EC50 value values were calculated using GraphPad Prism.

[2] = target: T2, hMOR (CHO-hMOR cell membranes) (Homo sapiens, UniProt P35372); assay: [35S]GTPγS binding assay in CHO-hMOR cell membranes; type: biochemical
T2 construct: host or cells: CHO cells expressing hMOR (purchased membranes)
T2 sequence (P35372 whole entry): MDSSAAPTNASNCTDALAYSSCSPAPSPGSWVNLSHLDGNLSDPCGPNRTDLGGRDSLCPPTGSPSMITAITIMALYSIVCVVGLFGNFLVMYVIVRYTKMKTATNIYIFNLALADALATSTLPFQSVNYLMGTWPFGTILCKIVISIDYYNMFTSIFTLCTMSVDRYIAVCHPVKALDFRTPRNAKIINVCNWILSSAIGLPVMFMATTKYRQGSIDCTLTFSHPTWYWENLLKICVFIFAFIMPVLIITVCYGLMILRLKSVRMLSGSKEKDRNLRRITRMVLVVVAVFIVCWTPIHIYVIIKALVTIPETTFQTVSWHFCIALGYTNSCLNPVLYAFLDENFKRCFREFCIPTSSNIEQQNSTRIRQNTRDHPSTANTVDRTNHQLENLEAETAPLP
Description: [^35]GTPγS Binding Assays in CHO-hMOR Cell Membranes
Methods: CHO-hMOR cell membranes were purchased from Receptor Biology, Inc. (Baltimore, Md.). About 10 mg/mL of membrane protein was suspended in 10 mM TRIS-HCl pH 7.2, 2 mM EDTA, 10% sucrose, and the suspension kept on ice. A 1 mL volume of membranes was added to 15 mL cold binding assay buffer containing 50 mM HEPES, pH 7.6, 5 mM MgCl2, 100 mM NaCl, 1 mM DTT and 1 mM EDTA. The membrane suspension was homogenized with a Polytron and centrifuged at 3,000 rpm for 10 min. The supernatant was then centrifuged at 18,000 rpm for 20 min. The pellet was resuspended in 10 mL assay buffer with a Polytron. The membranes were preincubated with wheat germ agglutinin coated SPA beads (Amersham) at 25° C. for 45 min in the assay buffer. The SPA bead (5 mg/mL) coupled membranes (10 μg/mL) were then incubated with 0.5 nM [^35S]GTPγS in the assay buffer. […] A range of concentrations of receptor agonist was used to stimulate [35S]GTPγS binding. Both basal and non-specific binding was tested in the absence of agonist; non-specific binding determination included 10 μM unlabeled GTPγS.
Compounds were tested for function as antagonists by evaluating their potential to inhibit agonist-stimulated GTPγS binding. Radioactivity was quantified on a Packard TopCount. The following parameters were calculated: [formula] [formula]
EC50 values were calculated using GraphPad Prism.

delta opioid receptor = delta opioid receptor (Rattus norvegicus, UniProt P33533); assay: Rat brain delta opioid receptor binding assay ([3H]DPDPE); settings: Rat delta opioid receptor binding constant, rat forebrain membranes, ~4 nM [3H]DPDPE
delta opioid receptor, sequence (P33533 whole entry): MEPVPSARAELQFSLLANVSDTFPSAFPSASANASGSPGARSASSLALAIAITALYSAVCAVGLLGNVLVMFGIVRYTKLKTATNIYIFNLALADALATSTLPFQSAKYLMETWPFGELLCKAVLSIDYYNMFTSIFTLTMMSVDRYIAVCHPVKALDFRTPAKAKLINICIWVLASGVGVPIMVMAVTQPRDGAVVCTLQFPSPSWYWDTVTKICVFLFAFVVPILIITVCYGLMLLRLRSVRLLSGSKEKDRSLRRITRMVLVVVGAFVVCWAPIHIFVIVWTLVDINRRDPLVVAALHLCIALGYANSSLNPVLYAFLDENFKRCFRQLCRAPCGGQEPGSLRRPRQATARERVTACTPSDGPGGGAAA
In short: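 Forebrain membranes from male Sprague Dawley rats in 50 mM Tris HCl pH 7.4 with 5 mM MgCl2, incubated with ~4 nM [3H]DPDPE for 2.5 h at 25° C., then filtered and counted. Single concentrations give % inhibition of specific binding; concentration ranges give Ki.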

[3] = DOR GTPγS EC50, NG108-15 cell membranes
[4] = NG108-15 cell membranes, read-out: DOR GTPγS EC50
[5] = CHO-hMOR cell membranes, [35S]GTPγS binding, read-out: hMOR GTPγS EC50

mu opioid receptor, sequence (P33535 whole entry): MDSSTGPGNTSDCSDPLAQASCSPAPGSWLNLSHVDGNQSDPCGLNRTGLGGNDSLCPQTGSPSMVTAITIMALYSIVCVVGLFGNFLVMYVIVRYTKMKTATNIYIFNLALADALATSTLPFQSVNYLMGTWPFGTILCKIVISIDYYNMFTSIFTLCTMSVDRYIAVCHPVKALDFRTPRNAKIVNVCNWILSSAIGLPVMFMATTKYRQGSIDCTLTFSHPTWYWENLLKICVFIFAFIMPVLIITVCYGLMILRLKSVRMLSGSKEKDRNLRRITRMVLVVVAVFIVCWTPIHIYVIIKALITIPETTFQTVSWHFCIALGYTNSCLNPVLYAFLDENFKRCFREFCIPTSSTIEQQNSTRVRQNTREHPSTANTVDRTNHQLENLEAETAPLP

| Structure (SMILES) | Ki (mu opioid receptor; MOR Ki) [nM] | EC50 [1, 3] [nM] | EC50 [2] [nM] | Ki (delta opioid receptor; DOR Ki) [nM] | Ki (mu opioid receptor; read-out: MOR Ki) [nM] | EC50 [1, 4] [nM] | EC50 [2, 5] [nM] | Ki (delta opioid receptor; read-out: DOR Ki) [nM] |
| --- | --- | --- | --- | --- | --- | --- | --- | --- |
| CCN(CC)C(=N)c1ccc2c(c1)Oc1ccccc1C2=C1CC2CCC(C1)N2 [Cpd 125] | 2050 | 78.3 | > 10000 | 6.3 | – | – | – | – |
| CCN(CC)C(=N)c1ccc2c(c1)Oc1ccccc1C2=C1CC2CCC(C1)N2 [Cpd 126] | – | – | – | – | > 10000 | > 10000 | > 10000 | 1410 |
| c1cncc(-c2ccc3c(c2)Oc2ccccc2C3=C2CC3CCC(C2)N3)c1 [Cpd 12, 3-(3-Pyridin-3-yl-xanthen-9-ylidene)-8-aza-bicyclo[3.2.1]octane] | 2130 | 587 | 0.47 | 24 | – | – | – | – |
| Cn1nnc(-c2ccc3c(c2)Oc2ccccc2C3=C2CC3CCC(C2)N3)n1 [Cpd 16, 3-[3-(2-Methyl-2H-tetrazol-5-yl)-xanthen-9-ylidene]-8-aza-bicyclo[3.2.1]octane] | 1460 | 573 | 0.48 | 30 | – | – | – | – |
| Oc1cccc2c1Oc1cc(-c3cnc4ccccc4c3)ccc1C2=C1CC2CCC(C1)N2 [Cpd 109] | – | – | – | – | 31 | 94.2 | 1230 | 2.22 |
| Oc1cccc2c1Oc1cc(-c3nnn[nH]3)ccc1C2=C1CC2CCC(C1)N2 [Cpd 90] | – | – | – | – | – | 0.7 | 90 | – |
| S=c1[nH]c(-c2ccc3c(c2)Oc2ccccc2C3=C2CC3CCC(C2)N3)no1 [Cpd 5, 3-[9-(8-Aza-bicyclo[3.2.1]oct-3-ylidene)-9H-xanthen-3-yl]-4H-[1,2,4]oxadiazole-5-thione] | 1020 | 104 | – | 6.89 | – | – | – | – |
